Results on 30 compounds are retold here after patent US10570121B2, “Substituted dihydroisoquinolinone compounds” (priority 2014, dated 2020).

One assay concerns the target EZH2 Mutant Y641N (Homo sapiens (Human), UniProt Q15910, Y641N). The experiment in a line: EZH2 Mutant Y641N nucleosome assay. Type of assay: biochemical. The conditions noted are these: PRC2 4-protein complex 6 nM, 1.5 μM SAM, HeLa oligonucleosomes. Here is the method: (§1) The genes for EZH2, EED, SUZ12, and RBBP4 proteins were cloned into pBacPAK9 vectors (Clontech). RBBP4 was FLAG tagged on the N-terminal end. The baculovirus expressions of these proteins were used to co-infect SF9 insect cells. Insect cell pellets were lysed in a buffer containing 25 mM Tris pH8.0, 300 mM NaCl, 0.5 mM TCEP, complete EDTA-free protease inhibitor (Roche), 0.1% NP-40. The supernatant from the lysate was incubated with FLAG® M2 antibody resin (Sigma). The resin was washed on the chromatography column and eluted with 0.2 mg/ml FLAG peptide. The elute was incubated with omnicleave nucleases (Epicentre Technologies) at 4° C. overnight, then concentrated and loaded onto a Superdex 200 (GE Healthcare) column. The Superdex 200 column was eluted with 25 mM Tris pH8.0, 150 mM NaCl, 0.5 mM TCEP. Fractions containing the PRC2 complex were pooled.
(§2) A. Compound preparation • 1.
(§3) B. Reagent preparation • 1. […] Dilute TCA to 20% in DI water
(§4) C. Enzyme reaction • 1. […] Some compounds were tested under high SAM conditions.
(§5) D. Data analysis • 1. IC50 values were determined by fitting the data to a 4-parameter IC50 equation using proprietary curve fitting software. • 2. For compounds tested under high SAM conditions, Ki^app values were obtained by fitting the dose response curve to a model for competitive inhibition using proprietary curve fitting software. Preparation of HeLa Oligonucleosomes: Reagents • Cell Pellet: 15 L HeLa S3 (Accelgen)+6 L HeLa S3 (in house) • Mnase (Worthington Biochemicals) Equipment • SW-28 Rotor • Dounce Homogenizer/B Pestle Buffers • Lysis: 20 mM Hepes pH 7.5, 0.25M Sucrose, 3 mM MgCl2, 0.5% Nonidet P-40, 0.5 mM TCEP, 1 Roche Protease Tablet • B: 20 mM Hepes pH7.5, 3 mM MgCl2, 0.5 mM EDTA, 0.5 mM TCEP, 1 Roche Protease Tablet • MSB: 20 mM Hepes pH7.5, 0.4 M NaCl, 1 mM EDTA, 5% v/v Glycerol, 0.5 mM TCEP, 0.2 mM PMSF • LSB: 20 mM Hepes pH7.5, 0.1M NaCl, 1 mM EDTA, 0.5 mM TCEP, 0.2 mM PMSF • NG: 20 mM Hepes pH7.5, 1 mM EDTA, 0.4 m NaCl, 0.2 mM PMSF, 0.5 mM TCEP • Storage: 20 mM Hepes pH7.5, 1 mM EDTA, 10% Glycerol, 0.2 mM PMSF, 0.5 mM TCEP Protocol

Another assay has as its target WT EZH2 (Homo sapiens (Human), UniProt Q15910). Description: WT EZH2 nucleosome assay (10X SAM, high SAM conditions). The conditions noted are these: 15 uM SAM, Ki app from competitive inhibition fit. The format is biochemical. Here is the method: as §1, §2, §3, §4, §5
Where [1] appears, read: read-out: EZH2 Mutant Y641N Nucleosome assay IC50.
[2] abbreviates: read-out: WT EZH2 Nucleosome assay (10X SAM) Ki.
[3] abbreviates: EZH2 Mutant Y641N Nucleosome assay IC50 (μM).
Setting [4] is: WT EZH2 Nucleosome assay (10X SAM) Ki (μM).

Read-outs that look alike come from different tables or passages of the source.

By IC50 is commonly meant the midpoint of a concentration-inhibition curve.

WT EZH2, sequence (Q15910 whole entry, looked up): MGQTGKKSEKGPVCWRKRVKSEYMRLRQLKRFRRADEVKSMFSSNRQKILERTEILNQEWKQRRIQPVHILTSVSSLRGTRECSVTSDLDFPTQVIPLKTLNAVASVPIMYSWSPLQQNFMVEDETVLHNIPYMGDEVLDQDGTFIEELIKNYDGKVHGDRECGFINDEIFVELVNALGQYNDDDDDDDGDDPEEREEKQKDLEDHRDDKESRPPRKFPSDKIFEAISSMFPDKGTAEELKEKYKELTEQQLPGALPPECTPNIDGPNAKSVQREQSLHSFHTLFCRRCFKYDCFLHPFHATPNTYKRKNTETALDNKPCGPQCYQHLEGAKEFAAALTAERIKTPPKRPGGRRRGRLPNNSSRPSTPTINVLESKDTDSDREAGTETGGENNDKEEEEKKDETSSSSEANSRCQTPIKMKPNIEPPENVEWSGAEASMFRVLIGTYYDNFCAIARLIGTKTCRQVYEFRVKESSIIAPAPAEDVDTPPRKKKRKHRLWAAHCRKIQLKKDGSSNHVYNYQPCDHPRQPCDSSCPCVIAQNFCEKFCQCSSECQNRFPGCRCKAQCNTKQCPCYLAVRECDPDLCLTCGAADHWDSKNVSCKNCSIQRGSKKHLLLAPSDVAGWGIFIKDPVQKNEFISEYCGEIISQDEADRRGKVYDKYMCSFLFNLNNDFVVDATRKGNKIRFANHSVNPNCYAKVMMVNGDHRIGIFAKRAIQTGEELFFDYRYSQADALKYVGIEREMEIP
WT EZH2, sequence (O75530 whole entry partner, looked up): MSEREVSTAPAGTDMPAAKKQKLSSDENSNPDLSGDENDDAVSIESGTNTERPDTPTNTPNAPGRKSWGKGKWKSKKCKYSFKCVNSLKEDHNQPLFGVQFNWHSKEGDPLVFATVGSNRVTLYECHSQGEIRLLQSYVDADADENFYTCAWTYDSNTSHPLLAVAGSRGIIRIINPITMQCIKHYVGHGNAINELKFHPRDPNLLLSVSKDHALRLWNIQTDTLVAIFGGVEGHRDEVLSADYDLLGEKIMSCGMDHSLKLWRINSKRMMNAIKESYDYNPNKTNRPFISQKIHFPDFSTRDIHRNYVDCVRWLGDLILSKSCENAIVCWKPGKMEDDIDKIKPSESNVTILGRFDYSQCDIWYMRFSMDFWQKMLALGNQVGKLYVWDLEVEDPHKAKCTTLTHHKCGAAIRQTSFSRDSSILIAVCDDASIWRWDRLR
WT EZH2, sequence (Q15022 whole entry partner, looked up): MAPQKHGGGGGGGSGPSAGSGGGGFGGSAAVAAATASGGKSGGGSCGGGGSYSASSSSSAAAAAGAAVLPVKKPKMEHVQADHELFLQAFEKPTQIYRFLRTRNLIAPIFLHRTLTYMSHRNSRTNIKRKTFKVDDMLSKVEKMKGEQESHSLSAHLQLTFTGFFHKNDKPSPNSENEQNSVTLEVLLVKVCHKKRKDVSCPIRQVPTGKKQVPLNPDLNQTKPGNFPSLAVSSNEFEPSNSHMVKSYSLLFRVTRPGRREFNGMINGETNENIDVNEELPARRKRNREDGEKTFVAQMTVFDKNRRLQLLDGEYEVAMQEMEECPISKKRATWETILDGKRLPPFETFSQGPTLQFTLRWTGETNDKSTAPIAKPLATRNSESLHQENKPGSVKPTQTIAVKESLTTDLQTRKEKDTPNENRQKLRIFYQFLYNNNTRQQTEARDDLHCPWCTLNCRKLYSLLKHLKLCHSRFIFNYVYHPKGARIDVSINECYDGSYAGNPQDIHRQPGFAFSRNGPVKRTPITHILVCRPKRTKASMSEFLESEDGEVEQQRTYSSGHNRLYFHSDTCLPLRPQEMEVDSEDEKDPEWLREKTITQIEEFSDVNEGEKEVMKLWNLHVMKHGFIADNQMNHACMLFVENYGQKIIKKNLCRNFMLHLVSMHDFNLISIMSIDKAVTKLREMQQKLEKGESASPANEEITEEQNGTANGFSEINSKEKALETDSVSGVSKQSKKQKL
WT EZH2, sequence (Q09028 whole entry partner, looked up): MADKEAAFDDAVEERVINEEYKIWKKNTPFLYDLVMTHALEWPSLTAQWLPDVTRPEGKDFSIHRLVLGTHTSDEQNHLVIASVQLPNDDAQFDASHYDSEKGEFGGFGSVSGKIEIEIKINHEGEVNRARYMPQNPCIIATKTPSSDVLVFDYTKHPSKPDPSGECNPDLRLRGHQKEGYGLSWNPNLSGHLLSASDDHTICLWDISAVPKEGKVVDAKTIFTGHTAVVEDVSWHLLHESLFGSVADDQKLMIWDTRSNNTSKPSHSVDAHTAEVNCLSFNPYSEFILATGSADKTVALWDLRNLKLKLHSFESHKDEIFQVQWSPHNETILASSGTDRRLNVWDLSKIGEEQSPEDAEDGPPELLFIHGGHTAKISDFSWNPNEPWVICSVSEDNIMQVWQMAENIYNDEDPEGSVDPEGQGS
EZH2 Mutant Y641N, sequence (Q15910 whole entry Y641N, looked up): as the sequence (Q15910 whole entry, looked up) above, with Y641N counted along it
EZH2 Mutant Y641N, sequence (O75530 whole entry partner, looked up): as the sequence (O75530 whole entry partner, looked up) above
EZH2 Mutant Y641N, sequence (Q15022 whole entry partner, looked up): as the sequence (Q15022 whole entry partner, looked up) above
EZH2 Mutant Y641N, sequence (Q09028 whole entry partner, looked up): as the sequence (Q09028 whole entry partner, looked up) above

Consider `Cc1cc(C)c(CN2CCc3c(Cl)cc(C(CO)O[C@@H]4CCOC4)c(Cl)c3C2=O)c(=O)[nH]1` (single isomer, unassigned) [Example 104], for which the IC50 on EZH2 Mutant Y641N (setting [1]) is 7.77 µM. Besides, the Ki at WT EZH2 (setting [2]) was 0.673 µM.

As to `COC(c1ccc2c(c1Cl)C(=O)N(Cc1c(C)cc(C)[nH]c1=O)CC2)C1CCOC1` (single isomer, unassigned) [Example 134], the IC50 at EZH2 Mutant Y641N (setting [1]) is 1.93 µM. Moreover, the Ki on WT EZH2 (setting [2]) is 0.131 µM.

For the compound `Cc1cc(C)c(CN2CCc3ccc(C(CO)C4CCOC4)c(Cl)c3C2=O)c(=O)[nH]1` (single isomer, unassigned) [Example 96], the IC50 on EZH2 Mutant Y641N (setting [1]) came to 2.99 µM. The Ki at WT EZH2 (setting [2]) turned out to be 0.204 µM.

Consider `CCC(OC)c1cc(Cl)c2c(c1Cl)C(=O)N(Cc1c(OC)cc(C)[nH]c1=O)CC2` (single isomer, unassigned) [Example 108], for which, on EZH2 Mutant Y641N (setting [1]), the IC50 came to 0.016 µM. At WT EZH2 (setting [2]), the Ki worked out at 0.0017 µM.

On to `COc1cc(C)[nH]c(=O)c1CN1CCc2c(Cl)cc([C@H](OC)C3COC3)c(Cl)c2C1=O` [Example 81, 5,8-dichloro-2-[(4-methoxy-6-methyl-2-oxo-1,2-dihydropyridin-3-yl)methyl]-7-[(R)-methoxy(oxetan-3-yl)methyl]-3,4-dihydroisoquinolin-1(2H)-one], for which, at EZH2 Mutant Y641N (setting [1]), the IC50 was 0.003 µM. The Ki on WT EZH2 (setting [2]) was determined as 0.0002 µM.

Take `Cc1cc(C)c(CN2CCc3c(Cl)cc(C(CO)N4CC[C@H](F)C4)c(Cl)c3C2=O)c(=O)[nH]1` (stereo partly drawn) [Example 58]: the IC50 at EZH2 Mutant Y641N (setting [1]) stood at 0.513 µM. Besides, the Ki on WT EZH2 (setting [2]) was found to be 0.057 µM.

On to `Cc1cc(C)c(CN2CCc3ccc(C(CO)C4CCOC4)c(Cl)c3C2=O)c(=O)[nH]1` (single isomer, unassigned) [Example 97], for which, at EZH2 Mutant Y641N (setting [1]), the IC50 was 0.027 µM. The Ki on WT EZH2 (setting [2]) was determined as 0.003 µM.

Turning to `COC(c1cc(Cl)c2c(c1Cl)C(=O)N(Cc1c(C)cc(C)[nH]c1=O)CC2)[C@H](C)CO` (single isomer, unassigned) [Example 140], the IC50 on EZH2 Mutant Y641N (setting [1]) was 1.17 µM. Further, the Ki at WT EZH2 (setting [2]) came out at 0.103 µM.

Compound `[2H]C([2H])([2H])OC(c1cc(Cl)c2c(c1Cl)C(=O)N(Cc1c(C)cc(C)[nH]c1=O)CC2)C1CCN(C(=O)CO)CC1` (single isomer, unassigned) [Example 164] registered an IC50 at EZH2 Mutant Y641N (setting [3]) of 1.97 µM. At WT EZH2 (setting [4]), the Ki was found to be 0.2 µM.

Consider `Cc1cc(C)c(CN2CCc3c(Cl)cc(C(CO)N4CC[C@H](F)C4)c(Cl)c3C2=O)c(=O)[nH]1` (single isomer, unassigned) [Example 62], for which the IC50 at EZH2 Mutant Y641N (setting [1]) amounted to 0.262 µM. Also, the Ki at WT EZH2 (setting [2]) came out at 0.035 µM.

The compound `CCC(OC)c1cc(Cl)c2c(c1Cl)C(=O)N(Cc1c(C)cc(C)[nH]c1=O)CC2` (single isomer, unassigned) [Example 15, 5,8-dichloro-2-[(4,6-dimethyl-2-oxo-1,2-dihydropyridin-3-yl)methyl]-7-(1-methoxypropyl)-3,4-dihydroisoquinolin-1(2H)-one] showed an IC50 at EZH2 Mutant Y641N (setting [3]) of 0.019 µM. Further, the Ki on WT EZH2 (setting [4]) was 0.003 µM.

Consider `CC(=C1CN(S(C)(=O)=O)C1)c1cc(C)c2c(c1Cl)C(=O)N(Cc1c(C)cc(C)[nH]c1=O)CC2` [Example 77], for which the IC50 on EZH2 Mutant Y641N (setting [1]) was determined as 0.132 µM. The Ki at WT EZH2 (setting [2]) came out at 0.022 µM.

In the case of `COC(c1cc(Cl)c2c(c1Cl)C(=O)N(Cc1c(C)cc(C)[nH]c1=O)CC2)C1CCN(C(=O)CC#N)CC1` (single isomer, unassigned) [Example 61], the IC50 at EZH2 Mutant Y641N (setting [1]) worked out at 0.127 µM. In addition, the Ki on WT EZH2 (setting [2]) is 0.031 µM.

Take `COc1cc(C)[nH]c(=O)c1CN1CCc2c(Cl)cc(C(C3COC3)N(C)C)c(Cl)c2C1=O` (single isomer, unassigned) [Example 203]: on EZH2 Mutant Y641N (setting [1]), the IC50 is 0.204 µM. Besides, at WT EZH2 (setting [2]), the Ki came out at 0.055 µM.

For the compound `Cc1cc(C)c(CN2CCc3c(Cl)cc([C@@H](CC#N)[C@@H]4CCOC4)c(Cl)c3C2=O)c(=O)[nH]1` (single isomer, unassigned) [Example 54], the IC50 on EZH2 Mutant Y641N (setting [1]) turned out to be 0.012 µM. Also, the Ki at WT EZH2 (setting [2]) worked out at 0.004 µM.

Turning to `COC(c1cc(Cl)c2c(c1Cl)C(=O)N(Cc1c(C)cc(C)[nH]c1=O)CC2)C1CN(C(=O)CO)C1` (single isomer, unassigned) [Example 129], the IC50 at EZH2 Mutant Y641N (setting [1]) came to 0.008 µM. Further, at WT EZH2 (setting [2]), the Ki came to 0.0008 µM.

As to `Cc1cc(C)c(CN2CCc3c(Cl)cc(C(CO)N4CCC(F)(F)C4)c(Cl)c3C2=O)c(=O)[nH]1` (single isomer, unassigned) [Example 66], at EZH2 Mutant Y641N (setting [1]), the IC50 is 0.081 µM. Besides, the Ki on WT EZH2 (setting [2]) is 0.009 µM.

As for `COC(c1cc(Cl)c2c(c1Cl)C(=O)N(Cc1c(C)cc(C)[nH]c1=O)CC2)C1CC(=O)N(C)C1` (single isomer, unassigned) [Example 179], at EZH2 Mutant Y641N (setting [1]), the IC50 stood at 0.009 µM. On WT EZH2 (setting [2]), the Ki turned out to be 0.001 µM.

Regarding `COC(c1cc(C)c2c(c1Cl)C(=O)N(Cc1c(C)cc(C)[nH]c1=O)CC2)C1CCS(=O)(=O)CC1` (single isomer, unassigned) [Example 131], the IC50 at EZH2 Mutant Y641N (setting [1]) turned out to be 0.005 µM. In addition, the Ki at WT EZH2 (setting [2]) worked out at 0.0007 µM.

As for `COc1cc(C)[nH]c(=O)c1CN1CCc2c(C)cc(C(C)C3CN(S(C)(=O)=O)C3)c(Cl)c2C1=O` (single isomer, unassigned) [Example 191], on EZH2 Mutant Y641N (setting [1]), the IC50 came out at 0.005 µM. The Ki at WT EZH2 (setting [2]) stood at 0.0003 µM.

Consider `COC(c1cc(Cl)c2c(c1Cl)C(=O)N(Cc1c(C)cc(C)[nH]c1=O)CC2)C1CCNCC1` (single isomer, unassigned) [Example 166], for which, at EZH2 Mutant Y641N (setting [1]), the IC50 amounted to 0.002 µM. The Ki at WT EZH2 (setting [2]) came to 0.0002 µM.

In the case of `COC(c1cc(Br)c2c(c1Cl)C(=O)N(Cc1c(C)cc(C)[nH]c1=O)CC2)C1CN(C(=O)CO)C1` (single isomer, unassigned) [Example 139], the IC50 at EZH2 Mutant Y641N (setting [1]) is 0.0085 µM. Besides, the Ki on WT EZH2 (setting [2]) is 0.0005 µM.

Consider `CC(=C1CNC1)c1cc(Cl)c2c(c1Cl)C(=O)N(Cc1c(C)cc(C)[nH]c1=O)CC2` [Example 74, 7-(1-(azetidin-3-ylidene)ethyl)-5,8-dichloro-2-((4,6-dimethyl-2-oxo-1,2-dihydropyridin-3-yl)methyl)-3,4-dihydroisoquinolin-1(2H)-one], for which the IC50 on EZH2 Mutant Y641N (setting [1]) came out at 0.051 µM. For the same compound, the Ki on WT EZH2 (setting [2]) was 0.005 µM.

With `Cc1cc(C)c(CN2CCc3c(Cl)cc(C(C)N4CCNCC4)c(Cl)c3C2=O)c(=O)[nH]1` (racemic) [Example 205], the IC50 at EZH2 Mutant Y641N (setting [1]) is 0.008 µM. Also, on WT EZH2 (setting [2]), the Ki was found to be 0.0007 µM.

Consider `COc1cc(C)[nH]c(=O)c1CN1CCc2c(Cl)cc(C(C3COC3)N(C)C)c(Cl)c2C1=O` (single isomer, unassigned) [Example 204], for which the IC50 on EZH2 Mutant Y641N (setting [1]) turned out to be 0.062 µM. Also, the Ki on WT EZH2 (setting [2]) came to 0.002 µM.

For the compound `Cc1cc(C)c(CN2CCc3c(Cl)cc(C(CO)N4CC[C@@H](F)C4)c(Cl)c3C2=O)c(=O)[nH]1` (single isomer, unassigned) [Example 7], at EZH2 Mutant Y641N (setting [1]), the IC50 was found to be 1.62 µM. In addition, the Ki on WT EZH2 (setting [2]) was determined as 0.171 µM.

`Cc1cc(C)c(CN2CCc3c(Cl)cc(C(C)C4CN(C(=O)CO)C4)c(Cl)c3C2=O)c(=O)[nH]1` (single isomer, unassigned) [Example 184]: the IC50 on EZH2 Mutant Y641N (setting [1]) turned out to be 0.005 µM. Further, the Ki at WT EZH2 (setting [2]) amounted to 0.0006 µM.

As to `Cc1cc(C)c(CN2CCc3c(Cl)cc(C(CO)N4CC[C@@H](F)C4)c(Cl)c3C2=O)c(=O)[nH]1` (stereo partly drawn) [Example 5, 5,8-dichloro-2-[(4,6-dimethyl-2-oxo-1,2-dihydropyridin-3-yl)methyl]-7-{1-[(3R)-3-fluoropyrrolidin-1-yl]-2-hydroxyethyl}-3,4-dihydroisoquinolin-1(2H)-one], at EZH2 Mutant Y641N (setting [1]), the IC50 came to 0.189 µM. Further, the Ki at WT EZH2 (setting [2]) was 0.033 µM.

For `COC(c1cc(Cl)c2c(c1Cl)C(=O)N(Cc1c(C)cc(C)[nH]c1=O)CC2)C1CCS(=O)(=O)C1` (single isomer, unassigned) [Example 150], at EZH2 Mutant Y641N (setting [1]), the half-inhibitory concentration (IC50) came to 0.003 µM. Moreover, the Ki at WT EZH2 (setting [2]) was found to be 0.0001 µM.

`COC(c1ccc2c(c1Cl)C(=O)N(Cc1c(C)cc(C)[nH]c1=O)CC2)C1CCOC1` (single isomer, unassigned) [Example 132]: at EZH2 Mutant Y641N (setting [1]), the IC50 is 0.013 µM. The Ki on WT EZH2 (setting [2]) amounted to 0.001 µM.
